# Experimental data taken from ChEMBL document CHEMBL4627307, “One-pot synthesis of thioxo-tetrahydropyrimidine derivatives as potent β-glucuronidase inhibitor, biological evaluation, molecular docking and molecular dynamics studies” (Bioorg Med Chem, 2020).
# Molecular target: T1, Beta-glucuronidase (Homo sapiens, UniProt P08236)
# T1 sequence (P08236 whole entry): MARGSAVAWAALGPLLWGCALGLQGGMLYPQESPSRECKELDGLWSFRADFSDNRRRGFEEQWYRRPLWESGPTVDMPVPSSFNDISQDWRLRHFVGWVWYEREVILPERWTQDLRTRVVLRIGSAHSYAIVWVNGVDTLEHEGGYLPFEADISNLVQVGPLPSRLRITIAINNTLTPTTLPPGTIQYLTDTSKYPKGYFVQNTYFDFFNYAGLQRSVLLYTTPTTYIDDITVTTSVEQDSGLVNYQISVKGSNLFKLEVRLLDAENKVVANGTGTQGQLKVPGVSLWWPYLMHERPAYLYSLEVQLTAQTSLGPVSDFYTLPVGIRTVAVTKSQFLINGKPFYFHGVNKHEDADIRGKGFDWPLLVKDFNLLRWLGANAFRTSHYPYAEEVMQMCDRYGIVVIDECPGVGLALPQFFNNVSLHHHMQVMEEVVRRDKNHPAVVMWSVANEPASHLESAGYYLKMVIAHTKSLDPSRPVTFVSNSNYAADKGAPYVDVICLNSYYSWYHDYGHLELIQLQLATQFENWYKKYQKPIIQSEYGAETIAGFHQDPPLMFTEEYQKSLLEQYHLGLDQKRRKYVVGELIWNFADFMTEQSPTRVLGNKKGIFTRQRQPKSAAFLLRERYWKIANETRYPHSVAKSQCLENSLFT
# Assay: Inhibition of beta-glucuronidase (unknown origin) using p-nitrophenyl-beta-D-glucuronide as substrate pre-incubated for 30 mins followed by substrate addition by spectrophotometric method
smiles,measurement,value
CCN(CC)C(=O)C1=C(C)N=C(S)NC1c1cccs1 (stereo unspecified),IC50,350 nM
